One data set deals with T1, OCT1 (Homo sapiens, UniProt O15245).
T1 sequence (O15245 1-554): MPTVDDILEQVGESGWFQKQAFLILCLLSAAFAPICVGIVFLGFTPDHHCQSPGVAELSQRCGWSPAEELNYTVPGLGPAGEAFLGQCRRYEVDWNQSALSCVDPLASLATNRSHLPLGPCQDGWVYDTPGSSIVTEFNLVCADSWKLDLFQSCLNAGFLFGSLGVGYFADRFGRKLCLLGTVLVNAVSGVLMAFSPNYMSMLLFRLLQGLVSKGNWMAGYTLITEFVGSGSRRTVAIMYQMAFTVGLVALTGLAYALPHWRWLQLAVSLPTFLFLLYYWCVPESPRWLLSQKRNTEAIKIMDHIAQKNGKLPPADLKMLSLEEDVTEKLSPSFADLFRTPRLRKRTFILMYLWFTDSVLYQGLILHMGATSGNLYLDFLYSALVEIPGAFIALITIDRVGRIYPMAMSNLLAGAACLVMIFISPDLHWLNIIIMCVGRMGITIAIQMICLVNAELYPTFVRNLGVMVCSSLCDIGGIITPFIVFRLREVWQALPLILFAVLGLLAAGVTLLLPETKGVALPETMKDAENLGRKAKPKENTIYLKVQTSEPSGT
Nature of the data set: OCT1 activity: DAPI accumulation in HEK-OCT1 cells. To be noted: for effect on OCT1 activity: pyrethroid 100 μM; for effect on OCT1 activity / IC50: DAPI; for IC50: IC50 for OCT1 inhibition, HEK-OCT1 cells; for inhibition at 100 μM: human, pH 7.4. As for the experimental part: (§1) The effects of pyrethroids on activity of ABC and SLC transporters were determined through measuring cellular accumulation or retention of fluorescent or radiolabeled reference substrates for transporters, in the presence or absence of reference inhibitors, as previously described. The nature of cells and reference substrates and inhibitors used for transport assays are summarized in S3 Table.
(§2) The nature of substrates and reference inhibitors and the incubation times with substrates, that varied according to the transporter, were selected in agreement with previous studies and are indicated in S3 Table. The total incubation volume with substrates was 200 μL/well. […] An aliquot of cell lysate (5 μL) was then taken for determining cellular protein content by the Bradford method.
(§3) Intracellular concentrations of reference substrates were initially expressed as fluorescence arbitrary units (for fluorescent dye substrates) or as moles (for radiolabeled substrates) and normalized to cellular protein content, determined by the Bradford method. They were finally used for calculating percentage of transporter activity, according to the following equations [41, 45]: %ABCtransporter activity=([Substrateref inh]-[Substratepyrethroid])×100/([Substrateref inh]-[Substratecontrol]) (1) %SLC transporter activity=([Substratepyrethroid]-[Substratref inh])×100/([Substratecontrol]-[Substrateref inh]) (2) with [Substratepyrethroid] = cellular concentration of reference substrate in the presence of pyrethroid, [Substrateref inh] = cellular concentration of reference substrate in the presence of reference inhibitor and [Substratecontrol] = cellular concentration of reference substrate in control cells not exposed to pyrethroid or reference inhibitor.
(§4) The initial tested concentration of pyrethroids was 100 μM. […] Such concentrations were calculated using GraphPad Prism software (GraphPad Software, La Jolla, CA), through nonlinear regression based on the four parameter logistic function using the following equations: […]

In the next data set the target is T2, OCT2 (Homo sapiens, UniProt O15244).
T2 sequence (O15244 1-555): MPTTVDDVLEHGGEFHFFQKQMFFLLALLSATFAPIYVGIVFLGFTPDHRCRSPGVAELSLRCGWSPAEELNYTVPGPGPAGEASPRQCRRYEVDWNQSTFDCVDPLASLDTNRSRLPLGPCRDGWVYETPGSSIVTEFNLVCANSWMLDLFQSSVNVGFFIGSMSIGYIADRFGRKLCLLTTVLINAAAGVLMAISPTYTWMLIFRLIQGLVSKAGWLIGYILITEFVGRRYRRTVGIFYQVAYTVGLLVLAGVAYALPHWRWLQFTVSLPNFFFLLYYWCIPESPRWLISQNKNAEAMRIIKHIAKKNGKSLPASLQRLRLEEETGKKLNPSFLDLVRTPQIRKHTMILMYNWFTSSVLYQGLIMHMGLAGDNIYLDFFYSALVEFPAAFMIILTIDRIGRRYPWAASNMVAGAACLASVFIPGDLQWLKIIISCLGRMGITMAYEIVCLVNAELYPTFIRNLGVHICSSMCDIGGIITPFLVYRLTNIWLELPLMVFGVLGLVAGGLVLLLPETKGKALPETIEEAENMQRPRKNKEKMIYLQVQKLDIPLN
Nature of the data set: OCT2 activity: rhodamine 123 accumulation in HEK-OCT2 cells. As to conditions: for effect on OCT2 activity: pyrethroid 100 μM. As to the method:
as §1, §2, §3, §4

The target in the next data set is T3, OAT1 (Homo sapiens, UniProt Q4U2R8).
T3 construct: host or cells: HEK293
T3 sequence (Q4U2R8 1-563): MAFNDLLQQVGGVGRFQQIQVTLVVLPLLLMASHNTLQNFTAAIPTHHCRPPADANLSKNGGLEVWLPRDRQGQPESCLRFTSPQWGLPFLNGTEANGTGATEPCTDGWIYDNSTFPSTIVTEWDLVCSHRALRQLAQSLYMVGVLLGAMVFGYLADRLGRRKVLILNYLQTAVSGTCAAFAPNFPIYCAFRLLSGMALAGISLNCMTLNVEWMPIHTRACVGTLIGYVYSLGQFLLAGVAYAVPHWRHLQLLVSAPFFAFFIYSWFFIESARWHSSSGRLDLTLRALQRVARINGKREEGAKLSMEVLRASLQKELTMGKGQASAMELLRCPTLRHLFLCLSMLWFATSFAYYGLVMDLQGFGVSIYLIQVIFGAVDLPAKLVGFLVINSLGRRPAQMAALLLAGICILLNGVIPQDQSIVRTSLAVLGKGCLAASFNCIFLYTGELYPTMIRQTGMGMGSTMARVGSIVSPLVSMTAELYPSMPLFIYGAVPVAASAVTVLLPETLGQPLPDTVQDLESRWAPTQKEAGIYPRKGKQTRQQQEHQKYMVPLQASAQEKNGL
The data set can be described thus: OAT1 activity: fluorescein accumulation in HEK-OAT1 cells. The data set is classed as cell-based.

In another data set the target is T4, MATE2-K (Homo sapiens, UniProt Q86VL8).
T4 construct: expressed in transfected cells; host or cells: HEK293
T4 sequence (Q86VL8 1-566 isoform Q86VL8-3): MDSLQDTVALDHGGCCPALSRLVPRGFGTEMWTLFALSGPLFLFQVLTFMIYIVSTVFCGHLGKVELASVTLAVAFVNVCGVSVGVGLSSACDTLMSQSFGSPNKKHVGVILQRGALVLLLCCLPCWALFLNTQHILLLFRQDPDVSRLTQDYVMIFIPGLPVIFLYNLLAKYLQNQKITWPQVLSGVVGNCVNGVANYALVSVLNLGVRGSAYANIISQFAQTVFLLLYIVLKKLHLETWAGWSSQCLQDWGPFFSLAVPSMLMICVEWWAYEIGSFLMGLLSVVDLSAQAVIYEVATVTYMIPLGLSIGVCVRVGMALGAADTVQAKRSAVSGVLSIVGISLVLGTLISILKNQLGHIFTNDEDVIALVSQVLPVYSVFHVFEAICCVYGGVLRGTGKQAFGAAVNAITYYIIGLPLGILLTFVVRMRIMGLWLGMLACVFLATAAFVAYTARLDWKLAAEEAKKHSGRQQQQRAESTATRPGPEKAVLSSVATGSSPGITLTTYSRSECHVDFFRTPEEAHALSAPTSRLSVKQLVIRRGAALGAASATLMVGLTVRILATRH
The data set can be described thus: MATE2-K activity: TEA accumulation in HEK-MATE2-K cells. Format: cell-based.

Read-outs that look alike come from different tables or passages of the source.

Procedure for MATE2-K: (§5) The effects of pyrethroids on activity of ABC and SLC transporters were determined through measuring cellular accumulation or retention of fluorescent or radiolabeled reference substrates for transporters, in the presence or absence of reference inhibitors, as previously described [41].
For accumulation assays (performed for all transporters, excepted BCRP), transporter-expressing cells usually cultured in 48-well plates were first incubated at 37°C with reference substrates in the absence (control) or presence of pyrethroids or reference inhibitors, in a well-defined transport assay medium [42], consisting of 136 mM NaCl, 5.3 mM KCl, 1.1mM KH2PO4, 0.8 mM MgSO4, 1.8 mM CaCl2, 10 mM HEPES, 11 mM D-glucose and adjusted to pH = 7.4 (excepted for MATE transporter assays, for which pH was set to 8.4). The nature of substrates and reference inhibitors and the incubation times with substrates, that varied according to the transporter, were selected in agreement with previous studies [41, 43] and are indicated in S3 Table. The total incubation volume with substrates was 200 μL/well. After washing twice in phosphate-buffered saline (PBS) (200 μL/well/washing), cells were lysed in distilled water (155 μL/well). An aliquot of cell lysate (5 μL) was then taken for determining cellular protein content by the Bradford method [44]. The rest of lysate (150 μL/well) was used for measuring intracellular accumulation of reference substrates by scintillation counting or spectrofluorimetry using a SpectraMax Gemini SX spectrofluorometer (Molecular Devices, Sunnyvale, CA, USA) (excitation and emission wavelengths were 485 and 535 nm, respectively, for rhodamine 123 and fluorescein, and 355 and 460 nm, respectively, for DAPI).
Intracellular concentrations of reference substrates were initially expressed as fluorescence arbitrary units (for fluorescent dye substrates) or as moles (for radiolabeled substrates) and normalized to cellular protein content, determined by the Bradford method [44]. […]
Procedure for OAT1: as §5
The total incubation volume with substrates was 200 μL/well. […] An aliquot of cell lysate (5 μL) was then taken for determining cellular protein content by the Bradford method [44].
Intracellular concentrations of reference substrates were initially expressed as fluorescence arbitrary units (for fluorescent dye substrates) or as moles (for radiolabeled substrates) and normalized to cellular protein content, determined by the Bradford method [44]. They were finally used for calculating percentage of transporter activity, according to the following equations [41, 45]: %ABCtransporter activity=([Substrateref inh]-[Substratepyrethroid])×100/([Substrateref inh]-[Substratecontrol]) (1) %SLC transporter activity=([Substratepyrethroid]-[Substratref inh])×100/([Substratecontrol]-[Substrateref inh]) (2) with [Substratepyrethroid] = cellular concentration of reference substrate in the presence of pyrethroid, [Substrateref inh] = cellular concentration of reference substrate in the presence of reference inhibitor and [Substratecontrol] = cellular concentration of reference substrate in control cells not exposed to pyrethroid or reference inhibitor.

`C#CCN1CC(=O)N(COC(=O)[C@@H]2C(C=C(C)C)C2(C)C)C1=O` (mixture of isomers) [imiprothrin]: the “effect on OCT1 activity” value on OCT1 is recorded as “markedly inhibited”. The “effect on OCT2 activity” value on OCT2 was “inhibited”. Besides, the “effect on OAT1 activity” value at OAT1 (pyrethroid up to 100 μM) was “failed to alter”.

With `C#CCC1=C(C)C(OC(=O)C2C(C=C(C)C)C2(C)C)CC1=O` (centres unmarked) [prallethrin], at OCT1, the “effect on OCT1 activity” value was “markedly inhibited”. Besides, the “effect on OCT2 activity” value on OCT2 is “inhibited”. Besides, the “effect on OAT1 activity” value on OAT1 (pyrethroid up to 100 μM) is given as “failed to alter”.

As usually defined, the IC50 is the concentration that inhibits the measured activity by half. Read a high IC50 as a need for much substance. Usually inhibition stands for the drop in the measured response relative to a control, in per cent. Lower therefore signals a weak effect. As for `C=CCC1=C(C)C(OC(=O)C2C(C=C(C)C)C2(C)C)CC1=O` (centres unmarked) [allethrin], the “effect on MATE2-K activity” value at MATE2-K (pyrethroid up to 100 μM, HEK-MATE2-K cells, TEA) is “failed to alter”; on MATE2-K (pyrethroid up to 100 μM, HEK-MATE2-K cells, TEA, listed as Allethrin), “No effect (up to 100 μM)”. Moreover, the IC50 on OCT1 is 2.6 µM; at OCT2, 42.6 µM. The compound further displayed an inhibition at 100 μM against OCT1 of 87.9%. Moreover, the “effect on OCT2 activity” value at OCT2 is on record as “markedly inhibit”. The “effect on OAT1 activity” value on OAT1 (pyrethroid up to 100 μM) is reported as “failed to alter”; at OAT1 (pyrethroid up to 100 μM, listed as Allethrin), “No effect (up to 100 μM)”.

In the case of `CC(C)=CC1C(C(=O)OCN2C(=O)C3=C(CCCC3)C2=O)C1(C)C` (centres unmarked) [tetramethrin], the “effect on MATE2-K activity” value at MATE2-K is recorded as “No effect (up to 100 μM)”. On OCT1, inhibition was half-maximal at 4.9 µM (IC50) and the inhibition at 100 μM came out at 73.8%. For the same compound, at OCT2, inhibition was half-maximal at 11.2 µM (IC50) and the “effect on OCT2 activity” value was “markedly inhibit”. The “effect on OAT1 activity” value at OAT1 is recorded as “No effect (up to 100 μM)”.

The values above are taken from paper PMC5242521 (PLoS ONE, 2017).
